Data as given in patent US8106055B2, “Substituted amide compounds” (Gruenenthal GmbH, priority 2007, dated 2012).

The compounds below were run against T1, human μ opiate receptor (Homo sapiens, UniProt P35372) (assay: Affinity for the human μ opiate receptor ([3H]-naloxone displacement, CHO-K1 receptor membrane preparation, SPA)). Settings: test concentration of 1 μM; read-out: μ (binding on the μ opioid receptor, % inhibition).
T1 construct: purchased PerkinElmer Life Sciences, Zaventem, Belgium RB-HOM; host or cells: CHO-K1 cells (membrane preparation)
T1 sequence (P35372 whole entry): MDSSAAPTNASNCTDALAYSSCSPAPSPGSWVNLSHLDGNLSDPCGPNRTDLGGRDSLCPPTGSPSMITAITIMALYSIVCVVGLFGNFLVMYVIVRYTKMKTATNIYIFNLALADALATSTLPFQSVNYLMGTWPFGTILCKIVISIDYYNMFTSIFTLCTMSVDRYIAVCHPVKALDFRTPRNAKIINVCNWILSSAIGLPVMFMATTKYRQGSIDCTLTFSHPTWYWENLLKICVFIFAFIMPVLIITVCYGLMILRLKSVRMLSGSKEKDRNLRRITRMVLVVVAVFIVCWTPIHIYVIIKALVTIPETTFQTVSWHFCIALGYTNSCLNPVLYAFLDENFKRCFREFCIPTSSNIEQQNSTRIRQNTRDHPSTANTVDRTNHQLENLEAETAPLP
Assay type: binding
Method in brief: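 Membranes from CHO-K1 cells expressing the human μ opiate receptor (15-40 μg protein per well) were incubated with test compound, 1 nmol/l [3H]-naloxone and WGA-SPA beads in 50 mmol/l Tris-HCl with 0.06% BSA for 90 minutes at room temperature. Values are % inhibition of specific binding at 1 μmol/l.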
COc1cc(C)c(S(=O)(=O)N2CCC(OCC(=O)NC3CCC(C(c4cccc(F)c4)N(C)C)CC3)C2)c(C)c1C (centres unmarked) [Example 189, N-(4-((dimethylamino)(3-fluorophenyl)methyl)cyclohexyl)-2-(1-(4-methoxy-2,3,6-trimethylphenylsulfonyl)pyrrolidin-3-yloxy)acetamide] gave an inhibition at 1 µM of 84%. COc1ccc(S(=O)(=O)N2Cc3ccccc3CC2COCC(=O)NCCC2CCC(C(c3cccc(F)c3)N(C)C)CC2)cc1 (centres unmarked) [Example 190, N-(2-(4-((dimethylamino) (3-fluorophenyl)methyl)cyclohexyl)ethyl)-2-((2-(4-methoxyphenylsulfonyl)-1,2,3,4-tetrahydroisoquinolin-3-yl)methoxy)acetamide] gave an inhibition at 1 µM of 83%. For COc1ccc(S(=O)(=O)N2CCCCC2COCC(=O)NCCC2CCC(C(c3cccc(F)c3)N(C)C)CC2)cc1OC (centres unmarked) [Example 191, 2-((1-(3,4-dimethoxyphenylsulfonyl)piperidin-2-yl)methoxy)-N-(2-(4-((dimethylamino)(3-fluorophenyl)methyl)cyclohexyl)ethyl)acetamide], the inhibition at 1 µM was 85%. CN(C)C(c1cccc(F)c1)C1CCC(CCNC(=O)COCCN(C)S(=O)(=O)c2cccc(C(F)(F)F)c2)CC1 (centres unmarked) [Example 192, N-(2-(4-((dimethylamino)(3-fluorophenyl)methyl)cyclohexyl)ethyl)-2-(2-(N-methyl-3-(trifluoromethyl)phenylsulfonamido)ethoxy)acetamide] showed an inhibition at 1 µM of 88%. For COc1cc(C)c(S(=O)(=O)N(CCOCC(=O)NC2CCC(C(c3ccccc3)N(C)C)CC2)Cc2ccccc2)c(C)c1C (centres unmarked) [Example 193, 2-(2-(N-benzyl-4-methoxy-2,3,6-trimethylphenylsulfonamido)ethoxy)-N-(4-((dimethylamino) (phenyl)methyl)cyclohexyl)acetamide], the inhibition at 1 µM was 85%. In the case of CN(C)C(c1cccs1)C1CCC(NC(=O)COC2CCN(S(=O)(=O)c3ccccc3)C2)CC1 (centres unmarked) [Example 194, N-(4-((dimethylamino)(thiophen-2-yl)methyl)cyclohexyl)-2-(1-(phenylsulfonyl)pyrrolidin-3-yloxy)acetamide], the inhibition at 1 µM is reported as 83%. Compound CN(C)C(c1ccccc1)C1CCC(CNC(=O)COC2CCN(S(=O)(=O)c3ccccc3)C2)CC1 (centres unmarked) [Example 195, N-((4-((dimethylamino)(phenyl)methyl)cyclohexyl)methyl)-2-(1-(phenylsulfonyl)pyrrolidin-3-yloxy)acetamide] has an inhibition at 1 µM of 83%. With CN(C)C(c1cccc(F)c1)C1CCC(NC(=O)COCCN(C)S(=O)(=O)c2ccc(Cl)cc2)CC1 (centres unmarked) [Example 196, 2-(2-(4-chloro-N-methylphenylsulfonamido)ethoxy)-N-(4-((dimethylamino)(3-fluorophenyl)methyl)cyclohexyl)acetamide] the inhibition at 1 µM was 81%. Compound COc1cc(C)c(S(=O)(=O)N(C)CCOCC(=O)NCCC2CCC(C(c3cccc(F)c3)N(C)C)CC2)c(C)c1 (centres unmarked) [Example 197, N-(2-(4-((dimethylamino)(3-fluorophenyl)methyl)cyclohexyl)ethyl)-2-(2-(4-methoxy-N,2,6-trimethylphenylsulfonamido)ethoxy)acetamide] has an inhibition at 1 µM of 85%. With COc1cc(C)c(S(=O)(=O)N2CCC(OCC(=O)NCCC3CCC(C(c4cccs4)N(C)C)CC3)C2)c(C)c1 (centres unmarked) [Example 199, N-(2-(4-((dimethylamino)(thiophen-2-yl)methyl)cyclohexyl)ethyl)-2-(1-(4-methoxy-2,6-dimethylphenylsulfonyl)pyrrolidin-3-yloxy)acetamide] the inhibition at 1 µM was 87%. For COc1cc(C)c(S(=O)(=O)N2CCN(CCOCC(=O)NCCC3CCC(C(c4cccc(F)c4)N(C)C)CC3)CC2)c(C)c1C (centres unmarked) [Example 200, N-(2-(4-((dimethylamino)(3-fluorophenyl)methyl)cyclohexyl)ethyl)-2-(2-(4-(4-methoxy-2,3,6-trimethylphenylsulfonyl)piperazin-1-yl)ethoxy)acetamide], the inhibition at 1 µM was 80%.
